pIC50: −log10 of the molar value. Activity calls are given as the source filed them. The calls are words filed in the database; no cut-off is given here.
What was measured:
AGS [1] = assay: Antiproliferative activity against human AGS cells assessed as reduction in cell viability incubated for 72 hrs by CCK-8 assay; format: functional, cell-based
MGC-803 [2] = assay: Antiproliferative activity against human MGC-803 cells assessed as reduction in cell viability incubated for 72 hrs by CCK-8 assay; format: functional, cell-based; settings: MGC-803, 72 h
[3] = Metabolic stability in human liver microsomes assessed as half life; format: ADME, Microsome
[4] = target: Signal transducer and activator of transcription 3 (Homo sapiens) (UniProt P40763); assay: Inhibition of STAT3 (unknown origin) transcriptional signaling transfected in HEK293T cells at 3 uM incubated for 24 hrs by firefly luciferase gene reporter assay; format: cell-based
Chain of Signal transducer and activator of transcription 3 (Homo sapiens) (P40763 whole entry): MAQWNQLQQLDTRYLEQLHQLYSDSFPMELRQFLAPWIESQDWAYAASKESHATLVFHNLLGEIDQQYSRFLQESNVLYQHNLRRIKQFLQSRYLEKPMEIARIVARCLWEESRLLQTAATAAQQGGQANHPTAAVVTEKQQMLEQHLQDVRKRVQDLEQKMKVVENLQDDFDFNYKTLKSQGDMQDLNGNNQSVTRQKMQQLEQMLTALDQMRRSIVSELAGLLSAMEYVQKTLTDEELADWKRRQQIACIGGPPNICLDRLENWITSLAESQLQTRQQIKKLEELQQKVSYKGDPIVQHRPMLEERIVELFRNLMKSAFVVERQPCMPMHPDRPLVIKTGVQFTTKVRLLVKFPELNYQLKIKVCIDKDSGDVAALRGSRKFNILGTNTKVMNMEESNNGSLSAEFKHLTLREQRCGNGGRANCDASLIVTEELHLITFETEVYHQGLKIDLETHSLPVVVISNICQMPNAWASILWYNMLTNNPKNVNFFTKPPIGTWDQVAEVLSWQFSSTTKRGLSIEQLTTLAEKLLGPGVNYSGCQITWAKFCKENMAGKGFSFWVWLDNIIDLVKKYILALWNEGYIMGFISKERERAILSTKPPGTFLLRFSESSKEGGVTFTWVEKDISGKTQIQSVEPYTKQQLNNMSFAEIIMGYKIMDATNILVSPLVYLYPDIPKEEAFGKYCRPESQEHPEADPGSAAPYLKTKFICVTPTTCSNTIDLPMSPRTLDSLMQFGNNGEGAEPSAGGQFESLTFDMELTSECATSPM

[5] = target: Signal transducer and activator of transcription 3 (Homo sapiens) (UniProt P40763); assay: Thermal stabilization of STAT3 in human AGS cells at 1 uM at 37 to 54 degreeC incubated for 1 hr by cellular thermal shift assay; format: cell-based
AGS [6] = assay: Inhibition of colony formation in human AGS cells at 0.3 to 3 uM incubated for 10 to 15 days by crystal violet staining based assay; format: functional, cell-based; settings: dose 0.3-3 µM, time 10-15 day
MGC-803 [7] = assay: Inhibition of colony formation in human MGC-803 cells at 0.3 to 3 uM incubated for 10 to 15 days by crystal violet staining based assay; format: functional, cell-based; settings: dose 0.3-3 µM, time 10-15 day
AGS [8] = assay: Induction of apoptosis in human AGS cells assessed as viable cells at 0.3 uM incubated for 48 hrs by Annexin V-FITC/PI staining based flow cytometry method (reference value: 94.8 %); format: functional; settings: read-out: Activity
AGS [9] = assay: Induction of apoptosis in human AGS cells assessed as viable cells at 1 uM incubated for 48 hrs by Annexin V-FITC/PI staining based flow cytometry method (reference value: 94.8 %); format: functional; settings: read-out: Activity
AGS [10] = assay: Induction of apoptosis in human AGS cells assessed as viable cells at 3 uM incubated for 48 hrs by Annexin V-FITC/PI staining based flow cytometry method (reference value: 94.8 %); format: functional; settings: read-out: Activity
AGS [11] = assay: Induction of apoptosis in human AGS cells assessed as early apoptotic cells at 0.3 uM incubated for 48 hrs by Annexin V-FITC/PI staining based flow cytometry method (reference value: 2.38 %); format: functional
AGS [12] = assay: Induction of apoptosis in human AGS cells assessed as early apoptotic cells at 1 uM incubated for 48 hrs by Annexin V-FITC/PI staining based flow cytometry method (reference value: 2.38 %); format: functional
AGS [13] = assay: Induction of apoptosis in human AGS cells assessed as early apoptotic cells at 3 uM incubated for 48 hrs by Annexin V-FITC/PI staining based flow cytometry method (reference value: 2.38 %); format: functional
AGS [14] = assay: Induction of apoptosis in human AGS cells assessed as late apoptotic cells at 0.3 uM incubated for 48 hrs by Annexin V-FITC/PI staining based flow cytometry method (reference value: 2.46 %); format: functional
AGS [15] = assay: Induction of apoptosis in human AGS cells assessed as late apoptotic cells at 1 uM incubated for 48 hrs by Annexin V-FITC/PI staining based flow cytometry method (reference value: 2.46 %); format: functional
AGS [16] = assay: Induction of apoptosis in human AGS cells assessed as late apoptotic cells at 3 uM incubated for 48 hrs by Annexin V-FITC/PI staining based flow cytometry method (reference value: 2.46 %); format: functional
AGS [17] = assay: Induction of apoptosis in human AGS cells assessed as necrotic cells at 0.3 uM incubated for 48 hrs by Annexin V-FITC/PI staining based flow cytometry method (reference value: 0.32 %); format: functional
AGS [18] = assay: Induction of apoptosis in human AGS cells assessed as necrotic cells at 1 uM incubated for 48 hrs by Annexin V-FITC/PI staining based flow cytometry method (reference value: 0.32 %); format: functional
AGS [19] = assay: Induction of apoptosis in human AGS cells assessed as necrotic cells at 3 uM incubated for 48 hrs by Annexin V-FITC/PI staining based flow cytometry method (reference value: 0.32 %); format: functional
MGC-803 [20] = assay: Antitumor activity against human MGC-803 cells xenografted in BALB/c mouse assessed as inhibition of tumor volume at 15 mg/kg,ip administrated for 21 consecutive days; format: functional, organism-based
MGC-803 [21] = assay: Antitumor activity against human MGC-803 cells xenografted in BALB/c mouse assessed as inhibition of tumor weight at 15 mg/kg,ip administrated for 21 consecutive days; format: functional, organism-based
MGC-803 [22] = assay: Antitumor activity against human MGC-803 cells xenografted in BALB/c mouse assessed as tumor growth inhibition at 15 mg/kg,ip administrated for 21 consecutive days relative to control; format: functional; settings: read-out: TGI

Row | SMILES | pIC50 (AGS [1]) | pIC50 (MGC-803 [2]) | half-life [3] [min] | inhibition [4] | also measured
1 | COc1ccn2c(-c3ccc(NC(=O)c4ccc([N+](=O)[O-])o4)cc3C)cnc2c1 | 6.19 | 5.99 | 43 | Active | –
2 | O=C(Nc1ccc(-c2cnc3cc(C4=CCNCC4)ccn23)cc1)c1ccc([N+](=O)[O-])o1 | 5.89 | 6.10 | 12.2 | Active | –
3 | O=C(Nc1ccc(-c2cnc3cc(N4CCN(C5CC5)CC4)ccn23)cc1)c1ccc([N+](=O)[O-])o1 | 5.72 | 5.78 | – | – | –
4 | O=C(Nc1ccc(-c2cnc3cc(C4=CCN(C5COC5)CC4)ccn23)cc1)c1ccc([N+](=O)[O-])o1 | 6.10 | 5.96 | – | – | –
5 | COc1ccn2c(-c3ccc(NC(=O)c4ccc([N+](=O)[O-])o4)c(C)c3)cnc2c1 | 6.37 | 5.86 | 39.9 | Active | –
6 | COc1ccn2c(-c3ccc(NC(=O)c4ccc([N+](=O)[O-])o4)c(C(F)(F)F)c3)cnc2c1 | 6.15 | 5.54 | 24.2 | Active | –
7 | O=C(Nc1ccc(-c2cnc3cc(N4CCOCC4)ccn23)cc1)c1ccc([N+](=O)[O-])o1 | 5.65 | 5.13 | – | – | –
8 | CC1(O)CCN(c2ccn3c(-c4ccc(NC(=O)c5ccc([N+](=O)[O-])o5)cc4)cnc3c2)CC1 | 5.82 | 5.51 | – | – | –
9 | O=C(Nc1ccc(-c2cnc3cc(N4CCCC4)ccn23)cc1)c1ccc([N+](=O)[O-])o1 | 5.91 | 5.94 | – | – | –
10 | COc1ccn2c(-c3ccc(NC(=O)c4ccc([N+](=O)[O-])o4)nc3)cnc2c1 | < 4.70 | < 4.70 | – | – | –
11 | O=C(Nc1ccc(-c2cnc3cc(Cl)ccn23)cc1)c1ccc([N+](=O)[O-])o1 | 5.77 | 5.34 | – | – | –
12 | COc1ccn2c(-c3ccc(NC(=O)c4ccc([N+](=O)[O-])o4)c(OC)c3)cnc2c1 | 5.41 | 5.12 | – | – | –
13 | O=C(Nc1ccc(-c2cnc3cc(N4CCC4)ccn23)cc1)c1ccc([N+](=O)[O-])o1 | < 5.30 | < 5.30 | – | – | –
14 | COc1ccn2c(-c3ccc(NC(=O)c4ccc([N+](=O)[O-])o4)c(C)c3C(F)(F)F)cnc2c1 | 5.68 | 5.57 | 50.1 | Active | –
15 | COc1ccn2c(-c3ccc(NC(=O)c4ccc([N+](=O)[O-])o4)cc3)cnc2c1 | 6.14 | 6.07 | 28.3 | Active | –
16 | Cc1cc(-c2cnc3ccccn23)ccc1NC(=O)c1ccc([N+](=O)[O-])o1 | 6.14 | 5.74 | 36.7 | Active | –
17 | COc1ccn2c(-c3ccc(NC(=O)c4ccc([N+](=O)[O-])o4)cc3F)cnc2c1 | 6.15 | 5.97 | 25.7 | Active | –
18 | COc1ccn2c(-c3ccc(NC(=O)c4ccc([N+](=O)[O-])o4)cc3OC)cnc2c1 | < 4.70 | < 4.70 | – | – | –
19 | CC(=O)N1CC=C(c2ccn3c(-c4ccc(NC(=O)c5ccc([N+](=O)[O-])o5)cc4)cnc3c2)CC1 | 6.39 | 6.03 | 13.5 | Active | –
20 | O=C(Nc1ccc(-c2cnc3cc(N4CCS(=O)(=O)CC4)ccn23)cc1)c1ccc([N+](=O)[O-])o1 | 5.67 | 5.52 | – | – | –
21 | O=C(Cc1c(-c2ccccc2)nc2ccccn12)Nc1ccc2c(c1)S(=O)(=O)C=C2 | 5.81 | – | 24.2 | Active | Activity [5]: Active; inhibition (AGS [6]): Dose-Dependent Effect; inhibition (MGC-803 [7]): Dose-Dependent Effect; viability at 0.3 µM (AGS [8]): 94.1%; viability at 1 µM (AGS [9]): 91.8%; viability at 3 µM (AGS [10]): 90.2%; Activity (AGS [11]): 2.59%; Activity (AGS [12]): 3.19%; Activity (AGS [13]): 7.98%; Activity (AGS [14]): 3.01%; Activity (AGS [15]): 4.84%; Activity (AGS [16]): 1.3%; Activity (AGS [17]): 0.29%; Activity (AGS [18]): 0.19%; Activity (AGS [19]): 0.5%; inhibition (MGC-803 [20]): Active; inhibition (MGC-803 [21]): Active; inhibition in vivo at 15 mg/kg (MGC-803 [22]): 54.5%
22 | CN1CCN(c2ccn3c(-c4ccc(NC(=O)c5ccc([N+](=O)[O-])o5)cc4)cnc3c2)CC1 | 5.63 | 5.80 | – | – | –
23 | O=C(Nc1ccc(-c2cnc3ccccn23)cc1)c1ccc([N+](=O)[O-])o1 | 6.44 | 6.23 | 24.7 | Active | –
24 | O=C(Nc1ccc(-c2cnc3cc(Br)ccn23)cc1)c1ccc([N+](=O)[O-])o1 | 6.25 | 6.12 | – | – | –
25 | CN1CCCN(c2ccn3c(-c4ccc(NC(=O)c5ccc([N+](=O)[O-])o5)cc4)cnc3c2)CC1 | 5.57 | 5.45 | – | – | –

Reference: ChEMBL document CHEMBL5247622, “Structural optimization of Imidazo[1, 2-a]pyridine derivatives for the treatment of gastric cancer via STAT3 signaling pathway” (Eur J Med Chem, 2022)
